Our source for the TGI and GI50 values is PubChem BioAssay (NCI).

SMILES strings stand for the structures.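 Cells were grown in 96-well plates and exposed to each compound for 48 hours at five concentrations; endpoints were interpolated linearly between bracketing concentrations, or set to the highest concentration if not reached. GI50: concentration for 50% inhibition of growth. At the TGI there is no net growth.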

Test systems include SK-MEL-28 melanoma; 786-0 renal; KM12 colon; ACHN renal; SNB-75 CNS; OVCAR-4 ovarian; HCT-116 colon; EKVX NSCLC; CCRF-CEM leukemia.
Assay in all cases: growth of human tumour cells (NCI), 48 h

For `S=C(Nc1ccccc1)N(Cc1ccccc1)c1ccccc1`, the TGI is 78.4 µM in the test on SK-MEL-28 melanoma; greater than 100 µM in the test on 786-0 renal; 69.6 µM with KM12 colon; greater than 100 µM with ACHN renal; greater than 100 µM in the test with SNB-75 CNS; 93.6 µM in the test on OVCAR-4 ovarian. The results for the TGI in the test with HCT-116 colon, with EKVX NSCLC and with CCRF-CEM leukemia were greater than 100 µM, 58.4 µM and greater than 100 µM, respectively.
In the case of `OC(CNc1ccnc2cc(Cl)ccc12)CNC1CCCCC1` (stereo not drawn), the GI50 in the test on SK-MEL-28 melanoma was 1.76 µM; in the test with 786-0 renal it was 11.8 µM; with KM12 colon, 13 µM; with ACHN renal it was 6.06 µM; with SNB-75 CNS, 2.1 µM; in the test with OVCAR-4 ovarian, 3.6 µM. Also, the results for the GI50 with HCT-116 colon, in the test with EKVX NSCLC and in the test with CCRF-CEM leukemia were 4.66 µM, 6.15 µM and 7.29 µM, respectively. The TGI with SK-MEL-28 melanoma came to 3.31 µM; in the test on 786-0 renal, 24.8 µM; with KM12 colon, 27.3 µM; in the test with ACHN renal, 19.4 µM; in the test on SNB-75 CNS it was 8.31 µM; in the test with OVCAR-4 ovarian, 23.8 µM. Moreover, the TGI in the test on HCT-116 colon was determined as 16.7 µM; in the test with EKVX NSCLC, 27 µM; in the test on CCRF-CEM leukemia, 42.4 µM.
`NCCCCN(Cc1nc2ccccc2[nH]1)[C@H]1CCCc2cccnc21`: the GI50 is 14.9 µM in the test with SK-MEL-28 melanoma; 21.2 µM in the test with 786-0 renal; 15.5 µM in the test on KM12 colon; 26.3 µM with ACHN renal; 8.53 µM in the test on SNB-75 CNS; 10.6 µM with OVCAR-4 ovarian. The results for the GI50 in the test on HCT-116 colon, in the test on EKVX NSCLC and in the test with CCRF-CEM leukemia were 6.81 µM, 15.2 µM and 7.06 µM, respectively. For the same compound, the TGI is 34.8 µM with SK-MEL-28 melanoma; greater than 77.1 µM in the test with 786-0 renal; greater than 100 µM in the test with KM12 colon; greater than 100 µM in the test with ACHN renal; greater than 100 µM with SNB-75 CNS; greater than 82.7 µM in the test on OVCAR-4 ovarian. The TGI is 51.3 µM in the test on HCT-116 colon, greater than 100 µM in the test with EKVX NSCLC and 56.3 µM in the test with CCRF-CEM leukemia.
`O=C(N/N=C\c1ccc(N(CCCl)CCCl)cc1Cl)c1cccnc1`: the GI50 in the test with SK-MEL-28 melanoma is 26.5 µM; with 786-0 renal, 15.1 µM; in the test with KM12 colon it was 19.4 µM; with ACHN renal it was 28.5 µM; with SNB-75 CNS, 20.1 µM; in the test on OVCAR-4 ovarian, 5.28 µM. For the same compound, the GI50 is 3.23 µM in the test on HCT-116 colon, 22.6 µM in the test with EKVX NSCLC and 14.5 µM in the test on CCRF-CEM leukemia. Besides, the TGI was greater than 100 µM with SK-MEL-28 melanoma; 56.6 µM in the test with 786-0 renal; 64.3 µM in the test on KM12 colon; greater than 100 µM in the test with ACHN renal; 73.7 µM in the test with SNB-75 CNS; 38.5 µM in the test on OVCAR-4 ovarian. Further, the figures for the TGI in the test on HCT-116 colon, with EKVX NSCLC and in the test on CCRF-CEM leukemia were 36.6 µM, greater than 83.6 µM and greater than 90.6 µM, respectively.
Turning to `Oc1c(N=Nc2ccccc2)c2ccccc2c2ccc3ccccc3c12`, the TGI in the test on SK-MEL-28 melanoma, with 786-0 renal, in the test with KM12 colon, in the test on ACHN renal, with SNB-75 CNS and in the test on OVCAR-4 ovarian was greater than 100 µM throughout. In addition, the TGI in the test on HCT-116 colon, in the test on EKVX NSCLC and in the test on CCRF-CEM leukemia was greater than 100 µM in each case.
`CCOC1C=CCCO1` (stereo not drawn): the TGI in the test with SK-MEL-28 melanoma, in the test on 786-0 renal, in the test on KM12 colon, with ACHN renal, in the test with SNB-75 CNS and in the test on OVCAR-4 ovarian was greater than 100 µM throughout. The TGI in the test with HCT-116 colon, in the test with EKVX NSCLC and with CCRF-CEM leukemia was greater than 100 µM in each case.
For `OC(CNC1CCCC1)Cn1c2ccccc2c2ccccc21` (stereo not drawn), the GI50 was greater than 100 µM in the test on SK-MEL-28 melanoma; 36.1 µM in the test on 786-0 renal; greater than 100 µM in the test with KM12 colon; 39.6 µM with ACHN renal; 12.9 µM with SNB-75 CNS; greater than 100 µM with OVCAR-4 ovarian. Besides, the GI50 was 67.3 µM with HCT-116 colon, 42.3 µM with EKVX NSCLC and greater than 100 µM in the test with CCRF-CEM leukemia. Moreover, the TGI is greater than 100 µM with SK-MEL-28 melanoma; greater than 100 µM in the test on 786-0 renal; greater than 100 µM in the test with KM12 colon; greater than 100 µM in the test with ACHN renal; 26.5 µM in the test with SNB-75 CNS; greater than 100 µM in the test with OVCAR-4 ovarian. In addition, the TGI with HCT-116 colon, with EKVX NSCLC and with CCRF-CEM leukemia was greater than 100 µM throughout.
As for `COc1ccc2c(c1)OC(N)=C(C#N)C2c1ccc(F)cc1` (stereo not drawn), the GI50 in the test on SK-MEL-28 melanoma is 15.2 µM; in the test on 786-0 renal, 3.96 µM; in the test on KM12 colon, 0.656 µM; in the test with ACHN renal, 6.35 µM; with SNB-75 CNS it was 1.4 µM; in the test on OVCAR-4 ovarian it was 6.59 µM. Moreover, the GI50 with HCT-116 colon is 1.09 µM; with EKVX NSCLC it was 5.09 µM; with CCRF-CEM leukemia it was 2.31 µM. Further, the TGI in the test on SK-MEL-28 melanoma was greater than 100 µM; in the test on 786-0 renal, greater than 100 µM; with KM12 colon, 25.8 µM; in the test on ACHN renal, greater than 100 µM; in the test on SNB-75 CNS, 13.3 µM; in the test with OVCAR-4 ovarian, greater than 100 µM. Besides, the TGI in the test on HCT-116 colon was 26 µM; in the test with EKVX NSCLC it was greater than 100 µM; in the test with CCRF-CEM leukemia it was greater than 100 µM.
`O=C(/C=C/c1ccc(C(F)(F)F)cc1)c1ccc(Nc2nc(NCCO)nc(N3CCOCC3)n2)cc1`: the GI50 in the test on SK-MEL-28 melanoma is 3.25 µM; in the test on 786-0 renal, 1.65 µM; in the test with KM12 colon it was 1.8 µM; in the test on ACHN renal, 1.86 µM; in the test with SNB-75 CNS it was 1.84 µM; with OVCAR-4 ovarian it was 3.05 µM. Further, the GI50 with HCT-116 colon is 1.43 µM; in the test on EKVX NSCLC it was 2.44 µM; in the test with CCRF-CEM leukemia it was 2.41 µM. In addition, the TGI in the test with SK-MEL-28 melanoma worked out at 11.5 µM; with 786-0 renal it was 3.1 µM; in the test on KM12 colon, 3.3 µM; in the test on ACHN renal, 3.86 µM; with SNB-75 CNS it was 7.9 µM; with OVCAR-4 ovarian, 10.2 µM. Also, the TGI is 2.74 µM in the test on HCT-116 colon, 8.01 µM in the test with EKVX NSCLC and 6.61 µM in the test on CCRF-CEM leukemia.
Regarding `Cc1ccc(/C=C2\CCCC\C2=N\O)cc1`, the TGI with SK-MEL-28 melanoma was greater than 100 µM; in the test with 786-0 renal it was greater than 100 µM; with ACHN renal it was greater than 100 µM; with SNB-75 CNS it was 81.3 µM; in the test on OVCAR-4 ovarian, greater than 100 µM; in the test on HCT-116 colon, greater than 100 µM. For the same compound, the TGI with EKVX NSCLC and with CCRF-CEM leukemia was greater than 100 µM throughout.
